# According to patent US20240270821A1, “GIP/GLP1/GCG TRI-RECEPTOR AGONISTS AND USES THEREOF” (priority 2023, published 2024):
# Like-named read-outs stand apart in the source and are kept apart here. Starred links: 1 amine or outer side, 2 acyl side, 3 side chain; linkers in the order of their positions; H or OH if unused. Non-standard residues stand in square brackets, D forms with d. Residues, ends and D or L forms follow the SMILES beside them. Groups on a side chain read outwards from the residue. No end group written: not given here. *: point of attachment. C18 diacid = O=C(O)CCCCCCCCCCCCCCCCC(=O)*; αMePhe(2-F) = C[C@](N)(Cc1ccccc1F)C(=O)O; γGlu = O=C(O)[C@H](CCC(=O)[*:2])N[*:1]; αMe4Pal = C[C@](N)(Cc1ccncc1)C(=O)O; αMeY = C[C@](N)(Cc1ccc(O)cc1)C(=O)O; 4Pal = N[C@@H](Cc1ccncc1)C(=O)O; αMeL = CC(C)C[C@](C)(N)C(=O)O; αMeS = C[C@](N)(CO)C(=O)O; Orn = NCCC[C@H](N)C(=O)O; AEEA = NCCOCCOCC(=O)O; Aib = CC(C)(N)C(=O)O
# Assays:
# Format in all cases: cell-based
# hGIPR [1] = target: T1, hGIPR (Homo sapiens, UniProt P48546); test: Functional cAMP activity in the presence of 1% HSA; settings: read-out: cAMP Rel EC50, hGIPR
# T1 sequence (P48546 22-466): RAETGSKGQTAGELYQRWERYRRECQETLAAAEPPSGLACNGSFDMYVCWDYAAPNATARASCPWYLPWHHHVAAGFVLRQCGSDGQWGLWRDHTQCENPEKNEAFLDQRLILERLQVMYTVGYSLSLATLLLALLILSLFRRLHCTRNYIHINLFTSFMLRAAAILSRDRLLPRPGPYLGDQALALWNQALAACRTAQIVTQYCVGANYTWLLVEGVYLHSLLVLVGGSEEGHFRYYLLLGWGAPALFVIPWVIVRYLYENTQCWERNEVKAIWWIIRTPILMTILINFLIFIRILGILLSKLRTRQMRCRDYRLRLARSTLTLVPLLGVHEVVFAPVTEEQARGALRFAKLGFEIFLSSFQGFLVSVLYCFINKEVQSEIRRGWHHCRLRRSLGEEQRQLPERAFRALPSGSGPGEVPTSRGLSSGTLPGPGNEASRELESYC
# hGLP-1R [2] = target: T2, hGLP-1R (Homo sapiens, UniProt P43220); test: Functional cAMP activity in the presence of 1% HSA; settings: read-out: cAMP Rel EC50, hGLP-1R
# human GcgR = human GcgR (Homo sapiens, UniProt P47871); test: Functional cAMP activity in the presence of 1% HSA; settings: read-out: cAMP Rel EC50, hGcgR
# hGIPR [3] = target: T1, hGIPR; test: Functional cAMP activation in the presence of 0.1% casein (no HSA); settings: read-out: Relative cAMP EC50, hGIPR;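 as to Relative cAMP EC50, hGIPR: intracellular cAMP rise after 30 min at 37 °C read by HTRF against a standard curve, scaled between buffer alone (0%) and top control ligand concentration (100%), four-parameter fit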;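 as to Relative cAMP EC50, hGLP-1R: intracellular cAMP rise after 30 min at 37 °C read by HTRF, normalized between buffer only (0%) and maximal control ligand (100%), four-parameter variable-slope fit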;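 as to Relative cAMP EC50, hGcgR: intracellular cAMP rise after 30 min at 37 °C, read by HTRF against a cAMP standard curve, scaled from buffer only (0%) to maximal control ligand response (100%)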
# hGLP-1R [4] = target: T2, hGLP-1R; test: as above; settings: read-out: Relative cAMP EC50, hGLP-1R
# hGcgR = hGcgR (Homo sapiens, UniProt P47871); test: as above; settings: read-out: Relative cAMP EC50, hGcgR;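 also: intracellular cAMP rise after 30 min at 37 °C, read by HTRF against a cAMP standard curve, scaled from buffer only (0%) to maximal control ligand response (100%)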
# [5] = HEK-293 clonal cell line, 1% HSA, geometric mean of relative EC50
# [6] = in the presence of 0.1% casein (no HSA), geometric mean of relative EC50
# [7] = in the presence of 0.1% casein (no HSA), geometric mean
# human GcgR, sequence (P47871 26-477): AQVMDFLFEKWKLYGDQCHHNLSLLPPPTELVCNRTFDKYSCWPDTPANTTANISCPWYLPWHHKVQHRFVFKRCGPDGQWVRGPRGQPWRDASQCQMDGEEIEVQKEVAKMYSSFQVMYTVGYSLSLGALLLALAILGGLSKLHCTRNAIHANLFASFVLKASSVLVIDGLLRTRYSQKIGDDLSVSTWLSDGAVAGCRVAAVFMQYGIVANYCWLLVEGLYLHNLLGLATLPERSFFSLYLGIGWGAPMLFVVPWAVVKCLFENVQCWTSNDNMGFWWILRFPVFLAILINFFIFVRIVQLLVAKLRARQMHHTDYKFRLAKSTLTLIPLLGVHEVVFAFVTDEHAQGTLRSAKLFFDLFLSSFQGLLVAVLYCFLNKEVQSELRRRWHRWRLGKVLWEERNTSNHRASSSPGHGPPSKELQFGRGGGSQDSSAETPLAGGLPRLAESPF
# hGcgR, sequence (P47871 26-477): as above
# T2 sequence (P43220 24-463): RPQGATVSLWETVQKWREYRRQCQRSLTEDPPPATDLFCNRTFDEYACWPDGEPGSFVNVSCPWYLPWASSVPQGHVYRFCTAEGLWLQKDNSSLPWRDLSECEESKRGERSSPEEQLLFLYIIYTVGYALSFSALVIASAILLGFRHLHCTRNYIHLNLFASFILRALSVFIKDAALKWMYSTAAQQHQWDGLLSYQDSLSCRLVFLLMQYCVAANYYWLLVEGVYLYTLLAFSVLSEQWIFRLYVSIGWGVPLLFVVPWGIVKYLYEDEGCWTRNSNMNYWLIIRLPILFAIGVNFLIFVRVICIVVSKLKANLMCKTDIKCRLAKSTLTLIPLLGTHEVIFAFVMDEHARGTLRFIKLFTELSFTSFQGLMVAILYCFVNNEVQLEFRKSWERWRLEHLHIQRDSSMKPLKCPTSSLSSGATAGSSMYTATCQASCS
EC50 (hGIPR [1]; [5]) [nM],EC50 (hGLP-1R [2]; [5]) [nM],EC50 (human GcgR; [5]) [nM],EC50 (hGIPR [3]; [6]) [nM],EC50 (hGLP-1R [4]; [6]) [nM],EC50 (hGcgR; [6]) [nM],Compound,EC50 (hGIPR [1]) [nM],EC50 (hGLP-1R [2]) [nM],EC50 (human GcgR) [nM],EC50 (hGIPR [3]) [nM],EC50 (hGLP-1R [4]) [nM],EC50 (hGcgR) [nM],EC50 (hGIPR [3]; [7]) [nM],EC50 (hGLP-1R [4]; [7]) [nM],EC50 (hGcgR; [7]) [nM]
–,–,–,–,–,–,CC[C@H](C)[C@H](NC(=O)[C@H](CC(C)C)NC(=O)[C@H](Cc1ccc(O)cc1)NC(=O)[C@@H](CCC(=O)O)NC(=O)[C@@H](NC(=O)[C@H](Cc1ccccc1)NC(=O)[C@H](CCCN)NC(=O)C(C)(C)NC(=O)[C@H](CCC(N)=O)NC(=O)[C@H](C)NC(=O)[C@H](CCCCNC(=O)COCCOCCNC(=O)CC[C@H](NC(=O)CCCCCCCCCCCCCCCCC(=O)O)C(=O)O)NC(=O)[C@H](CCCN)NC(=O)[C@H](CC(=O)O)NC(=O)[C@H](CC(C)C)NC(=O)[C@](C)(CC(C)C)NC(=O)[C@@H](NC(=O)[C@](C)(CO)NC(=O)[C@H](Cc1ccncc1)NC(=O)[C@H](CC(=O)O)NC(=O)[C@H](CO)NC(=O)[C@@H](NC(=O)[C@](C)(Cc1ccccc1F)NC(=O)[C@@H](NC(=O)CNC(=O)[C@H](CCC(N)=O)NC(=O)C(C)(C)NC(=O)[C@@H](N)Cc1ccc(O)cc1)[C@@H](C)O)[C@@H](C)O)[C@@H](C)CC)[C@@H](C)CC)C(=O)N[C@@H](CCC(=O)O)C(=O)NCC(=O)NCC(=O)N1CCC[C@H]1C(=O)N[C@@H](CO)C(=O)N[C@@H](CO)C(=O)NCC(=O)N[C@@H](CCC(=O)O)C(=O)N1CCC[C@H]1C(=O)N1CCC[C@H]1C(=O)N1CCC[C@H]1C(=O)N[C@@H](CCC(=O)O)C(N)=O [Example 458] (H-Y[Aib]QGT[αMePhe(2-F)]TSD[4Pal][αMeS]I[αMeL]LD[Orn]K([AEEA-γGlu-C18 diacid])AQ[Aib][Orn]FI[dE]YLIEGGPSSGEPPPE-NH2),8.07,22.7,319,0.0448,0.347,5.29,–,–,–
0.882,23.2,181,0.00998,0.22,1.44,Y[Aib]QGT[αMePhe(2-F)]TSD[4Pal][αMeS]I[αMeL]LD[Orn]K([AEEA-γGlu-C18 diacid])AA[Aib]EFI[dE][αMeY]LIEGGPSSGEPPPSGTE-NH2 [Example 719],–,–,–,–,–,–,–,–,–
–,–,–,–,–,–,CC[C@H](C)[C@H](NC(=O)[C@H](Cc1ccccc1)NC(=O)[C@H](C)NC(=O)C(C)(C)NC(=O)[C@H](CCC(N)=O)NC(=O)[C@H](C)NC(=O)[C@H](CCCCNC(=O)COCCOCCNC(=O)COCCOCCNC(=O)CC[C@H](NC(=O)CCCCCCCCCCCCCCCCCCC(=O)O)C(=O)O)NC(=O)[C@H](CCCCN)NC(=O)[C@H](CC(=O)O)NC(=O)[C@H](CC(C)C)NC(=O)[C@](C)(CC(C)C)NC(=O)[C@H](CCCN)NC(=O)[C@H](CO)NC(=O)[C@H](Cc1ccccc1)NC(=O)[C@H](CC(=O)O)NC(=O)[C@H](CO)NC(=O)[C@@H](NC(=O)[C@H](Cc1ccccc1)NC(=O)[C@@H](NC(=O)CNC(=O)[C@H](CCC(N)=O)NC(=O)C(C)(C)NC(=O)[C@@H](N)Cc1ccc(O)cc1)[C@@H](C)O)[C@@H](C)O)C(=O)N[C@@H](CCC(=O)O)C(=O)N[C@@H](Cc1ccc(O)cc1)C(=O)N[C@@H](CC(C)C)C(=O)N[C@@H](CC(C)C)C(=O)N[C@@H](CCC(=O)O)C(=O)N[C@H](C)C(=O)NCC(=O)N1CCC[C@H]1C(=O)N[C@@H](CO)C(=O)N[C@@H](CO)C(=O)NCC(=O)N[C@@H](C)C(=O)N1CCC[C@H]1C(=O)N1CCC[C@H]1C(=O)N1CCC[C@H]1C(=O)N[C@@H](CO)C(=O)N[C@@H](CCC(=O)O)C(=O)NCC(N)=O [Example 72],56.7,683,1910,–,–,–,0.202,1.86,5.48
–,–,–,–,–,–,H-Y[Aib]QGTFTSD[4Pal]S[Orn][αMeL]LDKK([AEEA-γGlu-C18 diacid])AQ[Aib]AFIEYLLE[dA]GPSS[Aib]APPPSGT-NH2 [Example 275],27.7,692,882,–,–,–,0.318,4.93,7.8
–,–,–,–,–,–,H-Y[Aib]QGTFTSD[4Pal]SQ[αMeL]LDKK([AEEA-AEEA-γGlu-C18 diacid])AQ[αMe4Pal]AFIEYLIE[Aib]GPSSGAPPPSGS-NH2 [Example 816],15.9,310,1100,–,–,–,0.297,2.69,6.57
–,–,–,–,–,–,H-Y[Aib]QGT[αMePhe(2-F)]TSD[4Pal]SI[αMeL]LD[Orn]K([γGlu-γGlu-C18 diacid])AQ[αMe4Pal]EFI[dE][αMeY]LAEGGPSSGAPPPSGS-NH2 [Example 646],1.09,90.5,1260,0.0336,2.58,23.1,–,–,–
